Reference: paper PMC9973354 (mBio, 2022)
Starred links: 1 amine or outer side, 2 acyl side, 3 side chain; linkers in the order of their positions; H or OH if unused. Positions of bridges follow the written chain, without caps; N, C: chain ends. Non-standard residues stand in square brackets, D forms with d. Residues, ends and D or L forms follow the SMILES beside them. ξ: configuration not given here. X1 = O=C([C@@H]1CCN=C2C(N[*:1])=Cc3cc(O)c(O)cc3N21)[*:2]; ξOrn(N(OH)CHO) = NC(CCCN(O)C=O)C(=O)O; Suc = O=C(CCC(=O)[*:2])[*:1]; ξK = NCCCCC(N)C(=O)O; ξS = NC(CO)C(=O)O

How the values were obtained:
FpvB R648C [1] = molecular target: T1, FpvB R648C (Pseudomonas aeruginosa, UniProt A0A0H2ZFZ5, R648C); test: Whole-cell fluorescence quenching, FpvB R648C in ΔfpvA ΔfpvB; assay type: binding
T1 sequence (A0A0H2ZFZ5 23-802 R648C): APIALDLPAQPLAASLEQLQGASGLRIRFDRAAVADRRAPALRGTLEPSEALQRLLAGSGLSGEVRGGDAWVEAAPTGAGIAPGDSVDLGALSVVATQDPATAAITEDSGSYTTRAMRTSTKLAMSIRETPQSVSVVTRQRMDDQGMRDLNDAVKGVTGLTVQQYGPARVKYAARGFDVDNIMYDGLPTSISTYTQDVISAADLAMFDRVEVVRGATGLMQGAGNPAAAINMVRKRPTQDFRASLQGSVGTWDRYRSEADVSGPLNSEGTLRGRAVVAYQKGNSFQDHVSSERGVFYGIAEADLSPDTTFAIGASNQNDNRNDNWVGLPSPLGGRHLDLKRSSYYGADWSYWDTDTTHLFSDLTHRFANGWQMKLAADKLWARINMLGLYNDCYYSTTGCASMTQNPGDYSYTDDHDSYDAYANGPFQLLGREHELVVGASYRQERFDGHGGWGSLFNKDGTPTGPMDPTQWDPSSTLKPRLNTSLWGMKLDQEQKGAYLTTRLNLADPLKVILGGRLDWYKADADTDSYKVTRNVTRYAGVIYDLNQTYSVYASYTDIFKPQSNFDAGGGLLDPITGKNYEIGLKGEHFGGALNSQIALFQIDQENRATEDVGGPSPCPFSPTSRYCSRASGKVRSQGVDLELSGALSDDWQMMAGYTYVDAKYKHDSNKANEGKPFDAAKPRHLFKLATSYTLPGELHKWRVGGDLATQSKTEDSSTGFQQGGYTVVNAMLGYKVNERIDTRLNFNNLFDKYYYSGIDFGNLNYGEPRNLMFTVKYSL
Source text: (§1) To determine the affinity of the siderophores for FpvA and FpvB, we adapted the method from Chakravorty et al. to generate a whole-cell sensor where fluorescence quenching serves as an indicator of ligand interaction ([31]). Siderophore binding triggers conformational changes at the extracellular loops of the TBDT (Fig. 3A). Cys substitutions were introduced at the loops and labeled with a fluorescent maleimide dye. When a ligand binds the transporter, the loops fold inward toward the lumen of the barrel, and changes in the chemical environment surrounding the fluorophore lead to quenching ([31], [32]). Fluorescence recovery occurs once the siderophore is taken up and the loop returns to its original conformation.
Cells were cultured overnight in LB with carbenicillin (200 μg/mL) at 37°C with shaking at 200 rpm. Cells were subcultured (1:200 dilution) in 10:90 plus 2% arabinose for 4 h without carbenicillin at 37°C with shaking at 200 rpm. […] Excess dye was quenched with 1 mM dithiothreitol (DTT) (Sigma) to stop the reaction. Cells were washed 3× with PBS. For fluorescence recovery assays, cells were incubated with 1× PBS plus 0.4% glucose at 37°C with shaking at 200 rpm. Glucose was prepared as a 20% stock (wt/vol) in 1× PBS and filter sterilized. Cells were spun down and washed 3× with 1× PBS and resuspended in 1× PBS for quenching assays and 1× PBS plus 0.4% glucose for fluorescence recovery assays.
(§2) For fluorescence quenching and recovery assays, cells were diluted to an OD600 of 0.1 for both types of assays, and 148 μL was added into wells of a 96-well black plate (Corning). Fluorescence was recorded for 5 min at 1-min intervals at 37°C (BioTek Neo; excitation, 494 nm; emission, 520 nm). After 5 min, 2 μL of each serial dilution for ferrioxamine-Fe^3+, ferrichrome-Fe^3+, and pyoverdine-Fe^3+ or DMSO for vehicle controls was added to each well. Fluorescence was recorded immediately for quenching assays and for 1 h at 1-min intervals for fluorescence recovery assays. Background fluorescence was subtracted from all fluorescence readings and 1-F/F0 was used to calculate the degree of quenching, where F0 is the initial fluorescence. Kd was calculated using GraphPad Prism using a one-site specific binding model or a two-site model. For fluorescence recovery assays, background was subtracted from all fluorescence readings and F/F0 expressed as a percent of control was plotted versus time.

FpvB R648C [2] = molecular target: T1, FpvB R648C; test: Fluorescence recovery assay (siderophore uptake by FpvB); assay type: cell-based; conditions: siderophore at 1/2 Kd (1/2 Kd2 for ferrioxamine B), recorded for 1 h
Description: Cells were equilibrated for 5 min prior to introduction of the siderophores. Fluorescence was recorded every min for 1 h. Carbonyl cyanide m-chlorophenylhydrazone (CCCP) was used as a control to inhibit fluorescence recovery through dissipation of the proton motive force (PMF) ([2], [3]), which is required for uptake.
Cells were cultured overnight in LB with carbenicillin (200 μg/mL) at 37°C with shaking at 200 rpm. Cells were subcultured (1:200 dilution) in 10:90 plus 2% arabinose for 4 h without carbenicillin at 37°C with shaking at 200 rpm. Cells were harvested by centrifugation for 5 min and 6,000 × g and resuspended in sterile 1× phosphate-buffered saline (PBS) (pH 7.4); 1× PBS was made from a 10× stock (80 g NaCl, 2 g KCl, 26.8 g Na2 HPO4-7H2O, 2.4 g KH2PO4 in 1 L of deionized H2O) with 10 μM Alexa Fluor 594 C5 maleimide for microscopy or fluorescein-5-maleimide for fluorescence quenching and recovery assays and incubated in the dark at […] for 30 min on a shaking incubator at 37°C (200 rpm). Excess dye was quenched with 1 mM dithiothreitol (DTT) (Sigma) to stop the reaction. Cells were washed 3× with PBS. For fluorescence recovery assays, cells were incubated with 1× PBS plus 0.4% glucose at 37°C with shaking at 200 rpm. […] Cells were spun down and washed 3× with 1× PBS and resuspended in 1× PBS for quenching assays and 1× PBS plus 0.4% glucose for fluorescence recovery assays.
as §2, with “After 5 min, 2 μL of each serial dilution for ferrioxamine-Fe^3+, ferrichrome-Fe^3+, and pyoverdine-Fe^3+ or DMSO for vehicle controls was added to each well.” left out, “For fluorescence recovery assays, background was subtracted from all fluorescence readings and F/F0 expressed as a percent of control was plotted versus time.” left out

[3] = system: PA14 ΔfpvA ΔfpvB pHERD20T-fpvB; test: Checkerboard assay TS and siderophores, FpvB expressed; assay type: cell-based, Pseudomonas aeruginosa; conditions: 10:90 + 2% arabinose
Source text: (§3) We investigated this hypothesis by treating the ΔfpvA ΔfpvB mutant complemented with fpvA or fpvB with TS and pyoverdine-Fe^3+. If pyoverdine competes with TS for the same binding site in the transporter, a reduction in TS susceptibility would be expected, as competition would decrease entry of the antibiotic into the cell. TS susceptibility decreased >8-fold with increasing concentrations of pyoverdine-Fe^3+ when FpvA was expressed (see Fig. S2A in the supplemental material).
(§4) Supplementary file : FIG S2 Checkerboard assays of the PA14 ΔfpvA ΔfpvB strain complemented with fpvA and fpvB in trans with TS and siderophores. […] Checkerboards of the PA14 ΔfpvA ΔfpvB pHERD20T-fpvB strain with TS and enterobactin (G), ferrioxamine E (H), and arthrobactin (I). Results are averaged from three independent biological replicates. Cells in the assay were grown in 10:90 + 2% arabinose. Download FIG S2, EPS file, 2.2 MB.
Checkerboards (8 rows by 8 columns) were conducted as previously described in a 96-well plate (Nunc) ([13], [14]). TS at 75× the final concentration dissolved in DMSO was added in columns from bottom to top in increasing concentrations. […] The next day, the OD600 was determined with a plate reader (Thermo Scientific) and normalized to percent of growth of the vehicle control (DMSO) after subtracting the OD600 from blank media.

[4] = system: PA14 ΔfpvA ΔfpvB pHERD20T-fpvA; test: Checkerboard assay TS and siderophores, FpvA expressed; assay type: cell-based, Pseudomonas aeruginosa; conditions: 10:90 + 2% arabinose
Source text: as §3, §4
Checkerboards (8 rows by 8 columns) were conducted as previously described in a 96-well plate (Nunc) ([13], [14]). TS at 75× the final concentration dissolved in DMSO was added in columns from bottom to top in increasing concentrations. Siderophores at 75× the final concentration dissolved in DSMO were added from in rows from left to right in increasing concentrations. Four columns were used for vehicle controls (DMSO) and sterile controls. […] Plates were sealed to prevent evaporation and incubated at 37°C overnight in a shaking incubator (200 rpm). The next day, the OD600 was determined with a plate reader (Thermo Scientific) and normalized to percent of growth of the vehicle control (DMSO) after subtracting the OD600 from blank media.

FpvA T660C = molecular target: T2, FpvA T660C (Pseudomonas aeruginosa, UniProt P48632, T660C); test: Whole-cell fluorescence quenching, FpvA T660C; assay type: binding; conditions: cells expressing FpvA T660C
T2 construct: expressed in transfected cells; host or cells: P. aeruginosa PA14 ΔfpvA ΔfpvB, plasmid pHERD20T-fpvA T660C, arabinose-induced
Source text: as §1
Cells were cultured overnight in LB with carbenicillin (200 μg/mL) at 37°C with shaking at 200 rpm. […] Cells were harvested by centrifugation for 5 min and 6,000 × g and resuspended in sterile 1× phosphate-buffered saline (PBS) (pH 7.4); 1× PBS was made from a 10× stock (80 g NaCl, 2 g KCl, 26.8 g Na2 HPO4-7H2O, 2.4 g KH2PO4 in 1 L of deionized H2O) with 10 μM Alexa Fluor 594 C5 maleimide for microscopy or fluorescein-5-maleimide for fluorescence quenching and recovery assays and incubated in the dark at room temperature for 30 min on a shaking incubator at 37°C (200 rpm). […]

FpvB R191A R648C = molecular target: T3, FpvB R191A R648C (Pseudomonas aeruginosa, UniProt A0A0H2ZFZ5, R191A/R648C); test: Whole-cell fluorescence quenching, FpvB R191A R648C; assay type: binding
T3 sequence (A0A0H2ZFZ5 23-802 R191A/R648C): T1 sequence (A0A0H2ZFZ5 23-802 R648C)
Description: (§5) Quenching assays with the two xenosiderophores were repeated for the quadruple TBDT mutant expressing WT FpvB, FpvB R191A R648C, or W347V R648C.
(§6) Cells were cultured overnight in LB with carbenicillin (200 μg/mL) at 37°C with shaking at 200 rpm. Cells were subcultured (1:200 dilution) in 10:90 plus 2% arabinose for 4 h without carbenicillin at 37°C with shaking at 200 rpm. Cells were harvested by centrifugation for 5 min and 6,000 × g and resuspended in sterile 1× phosphate-buffered saline (PBS) (pH 7.4); 1× PBS was made from a 10× stock (80 g NaCl, 2 g KCl, 26.8 g Na2 HPO4-7H2O, 2.4 g KH2PO4 in 1 L of deionized H2O) with 10 μM Alexa Fluor 594 C5 maleimide for microscopy or fluorescein-5-maleimide for fluorescence quenching and recovery assays and incubated in the dark at room temperature for 30 min on a shaking incubator at 37°C (200 rpm). Excess dye was quenched with 1 mM dithiothreitol (DTT) (Sigma) to stop the reaction. Cells were washed 3× with PBS. For fluorescence recovery assays, cells were incubated with 1× PBS plus 0.4% glucose at 37°C with shaking at 200 rpm. Glucose was prepared as a 20% stock (wt/vol) in 1× PBS and filter sterilized. Cells were spun down and washed 3× with 1× PBS and resuspended in 1× PBS for quenching assays and 1× PBS plus 0.4% glucose for fluorescence recovery assays.
as §2

FpvB R648C [5] = molecular target: T1, FpvB R648C; test: Whole-cell fluorescence quenching, FpvB R648C in quadruple mutant; assay type: binding
Description: as §5, §6, §2

FpvB W347V R648C = molecular target: T4, FpvB W347V R648C (Pseudomonas aeruginosa, UniProt A0A0H2ZFZ5, R648C/W347V); test: Whole-cell fluorescence quenching, FpvB W347V R648C; assay type: binding
T4 sequence (A0A0H2ZFZ5 23-802 W347V/R648C): T1 sequence (A0A0H2ZFZ5 23-802 R648C)
Description: as §5, §6, §2

[6] = FpvB R648C in quadruple mutant, two-site model

T2 sequence (P48632 44-815 T660C): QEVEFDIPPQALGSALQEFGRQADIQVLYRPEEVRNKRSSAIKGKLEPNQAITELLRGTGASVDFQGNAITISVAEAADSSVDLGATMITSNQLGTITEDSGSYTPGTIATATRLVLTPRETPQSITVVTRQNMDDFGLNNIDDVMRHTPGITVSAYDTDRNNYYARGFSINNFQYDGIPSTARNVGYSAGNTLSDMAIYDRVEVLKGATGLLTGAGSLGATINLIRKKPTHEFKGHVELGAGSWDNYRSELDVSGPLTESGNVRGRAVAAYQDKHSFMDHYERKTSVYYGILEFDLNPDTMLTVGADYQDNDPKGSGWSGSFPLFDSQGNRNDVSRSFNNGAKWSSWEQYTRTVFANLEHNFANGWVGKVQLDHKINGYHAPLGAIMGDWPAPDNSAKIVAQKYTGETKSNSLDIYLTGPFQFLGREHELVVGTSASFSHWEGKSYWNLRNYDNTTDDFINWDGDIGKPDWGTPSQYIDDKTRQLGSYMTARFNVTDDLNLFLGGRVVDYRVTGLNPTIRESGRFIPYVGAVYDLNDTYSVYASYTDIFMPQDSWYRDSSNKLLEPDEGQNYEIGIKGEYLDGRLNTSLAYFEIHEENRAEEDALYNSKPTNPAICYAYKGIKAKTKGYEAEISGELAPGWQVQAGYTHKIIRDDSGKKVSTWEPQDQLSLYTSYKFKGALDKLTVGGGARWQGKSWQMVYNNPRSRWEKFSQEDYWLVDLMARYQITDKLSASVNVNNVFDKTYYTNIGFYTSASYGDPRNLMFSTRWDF

NCCCCC(NC(=O)C(CO)NC(=O)[C@@H]1CCN=C2C(NC(=O)CCC(=O)O)=Cc3cc(O)c(O)cc3N21)C(=O)NCC(=O)NC(CCCN(O)C=O)C(=O)NC1CCCCNC(=O)C(CO)NC(=O)C(CCCN(O)C=O)NC1=O.[Fe+3] (stereo partly shown) [pyoverdine-Fe^3+] (Suc-[X1][ξS][ξK]G[ξOrn(N(OH)CHO)][ξK][ξOrn(N(OH)CHO)][ξS]; lactam 6-C)
Kd for FpvB relative to FpvA (FpvB R648C [1]; higher for FpvB): 200 fold | fluorescence recovery (FpvB R648C [2]): No recovery | effect of siderophore on TS susceptibility [3]: did not impact TS susceptibility

CC(=O)N(O)CCCCCNC(=O)CC(O)(CC(=O)NCCCCCN(O)C(C)=O)C(=O)O [arthrobactin]
effect of siderophore on TS susceptibility [4]: None of those siderophores reduced TS susceptibility

O=C(N[C@H]1COC(=O)[C@@H](NC(=O)c2cccc(O)c2O)COC(=O)[C@@H](NC(=O)c2cccc(O)c2O)COC1=O)c1cccc(O)c1O [enterobactin]
effect of siderophore on TS susceptibility [4]: None of those siderophores reduced TS susceptibility

CC(=O)N([O-])CCCCCNC(=O)CCC(=O)N([O-])CCCCCNC(=O)CCC(=O)N([O-])CCCCCN.[Fe+3] [ferrioxamine B-Fe^3+]
Kd1 (FpvB R648C [1]; FpvB R648C in ΔfpvA ΔfpvB, two-site model, higher-affinity site): 1.0 × 10^2 ± 50 ng/mL | Kd2 (FpvB R648C [1]; FpvB R648C in ΔfpvA ΔfpvB, two-site model, lower-affinity site): 270000 ± 47000 ng/mL | fluorescence quenching (FpvA T660C): No quenching | Kd (FpvB R191A R648C; FpvB R191A R648C, one-site model): 300 ± 43 µg/mL | Kd1 (FpvB R648C [5]; [6]): 1.0x10^2 ± 59 ng/mL | Kd2 (FpvB R648C [5]; [6]): 370000 ± 95000 ng/mL | Kd (FpvB W347V R648C; FpvB W347V R648C, one-site model): 490 ± 68 µg/mL

ferrichrome-Fe^3+
fluorescence quenching (FpvA T660C): ~ 20% | increase of Kd by the mutation (FpvB R191A R648C; R191A versus FpvB R648C): 76 fold | Kd (FpvB R648C [5]; FpvB R648C in ΔfpvA ΔfpvB ΔfiuA ΔfoxA): 8.5 ± 0.80 ng/mL | increase of Kd by the mutation (FpvB W347V R648C; W347V versus FpvB R648C): > 76 fold
